Experimental findings from paper PMC11940309, “Endocrine-Disrupting Activities of Flavones on Steroid Receptors: Structural Requirements and Synthesis of Novel Flavone with Improved Estrogenic Activity” (Biomedicines, 2025) are described below.

One experiment relates to estrogen receptor (ER). Nature of the experiment: ER-mediated luciferase reporter induction in T47D KBluc cells. Format: cell-based, human. The settings on record: relative to 1nM estradiol. The essentials: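 T47D KBluc cells hormone-deprived in phenol red-free RPMI with charcoal-stripped FBS for several days, then replated at 50,000 cells/well for compound treatment. Luciferase luminescence measured in quadruplicate; percent inhibition taken as 100 minus percent induction.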

For experiment [1], the target named is T1, progesterone receptor (PR) (Homo sapiens, UniProt P06401).
T1 sequence (P06401 679-933 limits assumed): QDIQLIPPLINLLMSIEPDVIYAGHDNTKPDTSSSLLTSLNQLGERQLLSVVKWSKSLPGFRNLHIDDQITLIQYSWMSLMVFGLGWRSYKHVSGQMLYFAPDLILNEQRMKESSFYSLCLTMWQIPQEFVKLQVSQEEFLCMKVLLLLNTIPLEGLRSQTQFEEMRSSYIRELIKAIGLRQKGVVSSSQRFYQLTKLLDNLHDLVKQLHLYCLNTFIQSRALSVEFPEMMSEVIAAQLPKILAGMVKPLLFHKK
Nature of the experiment: PR-mediated induction of transcription by R5020 in T47D K5pLuc cells (luciferase reporter and endogenous alkaline phosphatase). The settings on record: T47D, R5020 1.0 nM. The format is cell-based. The essentials:
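T47D K5pLuc cells, carrying a stably integrated cytokeratin 5-luciferase reporter, were treated with 1.0 nM R5020 plus compound for 20 h in DMEM/10% FBS. Luciferase and endogenous alkaline phosphatase measured by luminescence, in quadruplicate. Percent inhibition = 100 minus percent induction.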
Background: A reporter such as luciferase makes a cellular process visible.

The target of another experiment is T2, human AR (Homo sapiens, UniProt P10275).
T2 construct: expressed in transfected cells; host or cells: HeLa13 (HeLa 13)
T2 sequence (P10275 1-920): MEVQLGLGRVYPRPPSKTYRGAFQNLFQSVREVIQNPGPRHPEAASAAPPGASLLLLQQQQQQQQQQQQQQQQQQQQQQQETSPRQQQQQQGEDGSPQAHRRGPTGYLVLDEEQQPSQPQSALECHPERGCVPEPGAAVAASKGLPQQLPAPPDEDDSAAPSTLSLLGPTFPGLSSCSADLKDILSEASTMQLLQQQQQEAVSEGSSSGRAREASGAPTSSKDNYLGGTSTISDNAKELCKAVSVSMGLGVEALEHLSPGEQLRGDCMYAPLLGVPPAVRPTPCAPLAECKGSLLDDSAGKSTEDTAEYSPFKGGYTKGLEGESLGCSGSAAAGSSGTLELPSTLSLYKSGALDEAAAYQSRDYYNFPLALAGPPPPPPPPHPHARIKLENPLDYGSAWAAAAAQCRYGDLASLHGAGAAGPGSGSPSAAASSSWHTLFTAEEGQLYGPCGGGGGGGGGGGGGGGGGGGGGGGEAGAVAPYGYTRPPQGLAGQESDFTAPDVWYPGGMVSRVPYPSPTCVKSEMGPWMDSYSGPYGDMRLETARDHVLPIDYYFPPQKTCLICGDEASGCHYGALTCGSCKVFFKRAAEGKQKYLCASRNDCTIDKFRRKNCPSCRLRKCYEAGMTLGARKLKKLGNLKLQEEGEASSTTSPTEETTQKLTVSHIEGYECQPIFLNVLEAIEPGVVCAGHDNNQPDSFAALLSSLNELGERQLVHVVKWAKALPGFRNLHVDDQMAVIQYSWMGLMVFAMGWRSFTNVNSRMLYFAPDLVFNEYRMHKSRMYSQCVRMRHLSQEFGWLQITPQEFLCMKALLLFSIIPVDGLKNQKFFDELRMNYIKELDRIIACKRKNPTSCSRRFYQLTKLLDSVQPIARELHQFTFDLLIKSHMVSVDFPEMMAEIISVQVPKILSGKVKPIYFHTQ
As to the kind of experiment: AR-mediated induction of PSA-luciferase reporter by R1881 in HeLa13 cells. Format: cell-based. The settings on record: read-out: % Inhibition of AR-Mediated Gene Induction. Put shortly:
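HeLa13 cells stably expressing human AR and a 4× PSA ARE1-luciferase reporter, grown in 5% charcoal-stripped FBS. Treated with 1.0 nM R1881 plus flavonoid for 20 h, then luciferase measured, in quadruplicate. Percent inhibition = 100 minus percent induction.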

Where two headings read alike, the source gives them in different places.

As for `O=c1cc(-c2ccc(O)c(O)c2)oc2cc(O)ccc12` [7,3′,4′-trihydroxyflavone], the entries for the “% ER Induction” value in the experiment on estrogen receptor (ER) (1 µM) and with estrogen receptor (ER) (4 µM) were 0% and 30%, respectively. The inhibition at 4 µM in experiment [1] (AP (alkaline phosphatase)) was 13%; in experiment [1] (LUC (luciferase)), -11%; on human AR (4 µM, R1881 1.0 nM), 11%. In addition, the inhibition at 8 µM in experiment [1] (AP (alkaline phosphatase)) is 39%; in experiment [1] (LUC (luciferase)) it was -10%. On human AR (1 µM, R1881 1.0 nM), the inhibition at 1 µM is -6%.
Consider `O=c1cc(-c2ccc(O)cc2)oc2cc(O)ccc12` [7,4′-dihydroxyflavone], for which the “% ER Induction” value in the experiment on estrogen receptor (ER) (1 µM) is listed as 86%; in the experiment on estrogen receptor (ER) (4 µM) it was 140%. Besides, the inhibition at 4 µM was 41% in experiment [1] (AP (alkaline phosphatase)), -16% in experiment [1] (LUC (luciferase)) and -20% on human AR. Moreover, the inhibition at 8 µM in experiment [1] (AP (alkaline phosphatase)) was 55%; in experiment [1] (LUC (luciferase)), -49%. The inhibition at 1 µM on human AR is -18%.
As to `O=c1c(-c2ccc(O)cc2)coc2cc(O)ccc12` [7,4′-dihydroxyisoflavone], in the experiment on estrogen receptor (ER) (1 µM), the “% ER Induction” value was 125%. In addition, the inhibition at 4 µM in experiment [1] (AP (alkaline phosphatase)) is 41%; in experiment [1] (LUC (luciferase)), -13%; at human AR (4 µM, R1881 1.0 nM), 24%. In addition, the inhibition at 8 µM in experiment [1] (AP (alkaline phosphatase)) was 38%; in experiment [1] (LUC (luciferase)), -126%.
In the case of `O=c1cc(-c2ccccc2)oc2ccccc12` [flavone], the “% ER Induction” value worked out at 1% in the experiment on estrogen receptor (ER) (1 µM) and 3% in the experiment on estrogen receptor (ER) (4 µM). Further, the inhibition at 4 µM was 10% in experiment [1] (AP (alkaline phosphatase)); -66% in experiment [1] (LUC (luciferase)); 55% on human AR (4 µM, R1881 1.0 nM). Moreover, the inhibition at 8 µM was 40% in experiment [1] (AP (alkaline phosphatase)) and -107% in experiment [1] (LUC (luciferase)). In addition, the inhibition at 1 µM on human AR (1 µM, R1881 1.0 nM) was -12%.

A word on the inhibition: it is the drop in the measured response relative to a control, in per cent.
